Assay results: US20030228621A1, “Common ligand universal enzyme assay and compositions for use therein” (priority 2002, published 2003)

Legend:
[1] = target: dihydrodipicolinate reductase (DHPR) (Escherichia coli, UniProt P04036); test: Fluorescence polarization binding of FITC-NADH titrated with dihydrodipicolinate reductase (FIG. 4); settings: 25 nM FITC-NADH, 20 mM Potassium Phosphate, pH 7.4, or 20 mM HEPES, pH 7.8, fit of mP vs Log(DHPR)
Procedure: This example illustrates the determination of the concentration of FITC-NADH that would provide the best signal to noise ratio for fluorescence polarization assay. FITC-NADH was dissolved in 10 mM TAPS buffer with 5% NaHCO3, pH=8. The final concentration of FITC-NADH was 150 μM. In later experiments 150 μM FITC-NADH was diluted to the desired concentration in 20 mM Potassium Phosphate buffer, pH=7.4. Fluorescence polarization was monitored using a Beacon 2000 Variable Temperature Fluorescence Polarization System (PanVera Corporation, Madison, Wis.) and an LJL Analyst HT 96-384 (Molecular Devices Corporation, Sunnyvale, Calif.). The concentration of FITC-NADH as fluorescent tracer was selected by measuring fluorescence polarization of varying concentrations of FITC-NADH in 10 mM Potassium Phosphate buffer, pH=7.4. The concentration range was 0.15 nM—15 nM. For the best signal to noise ratio regarding both the horizontal and vertical intensities that contribute to the fluorescence polarization value, a concentration of 25 nM was chosen for FITC-NADH in the majority of experiments.
This example illustrates the binding characteristics of FITC-NADH to various dehydrogenases. […] An individual blank of protein in buffer was measured for each point. […] FITC-NADH was added to the test tubes and the fluorescence polarization measurement was taken. […]

[2] = Stability of dehydrogenases and FITC-NADH by fluorescence polarization over time; type: physicochemical; settings: 1.5 nM FITC-NADH with EACPR, GAPDH or DHPR
Procedure: The fluorescence polarization of solutions of 10 μM enoyl ACP reductase, 5.6 μM glyceraldehyde-3-phosphate dehydrogenase and 10 μM dihydrodipicolinate reductase with 1.5 nM FITC-NADH, was measured. The concentration of the dehydrogenase was such that the solution of dehydrogenase and FITC-NADH would give the polarization mP value of 70-80. The blank was a solution of protein in buffer. Fluorescence polarization measurements were taken for 2 hours at 5 minute intervals.

Chain of dihydrodipicolinate reductase (DHPR) (P04036 whole entry): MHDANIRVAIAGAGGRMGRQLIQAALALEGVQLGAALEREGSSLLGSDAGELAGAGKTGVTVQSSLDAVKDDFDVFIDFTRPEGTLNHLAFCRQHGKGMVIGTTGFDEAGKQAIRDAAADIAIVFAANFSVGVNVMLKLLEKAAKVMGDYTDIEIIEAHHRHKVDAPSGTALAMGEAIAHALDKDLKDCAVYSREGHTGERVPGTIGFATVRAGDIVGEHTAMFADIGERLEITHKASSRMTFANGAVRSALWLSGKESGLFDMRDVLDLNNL

With NC(=O)C1=CN(C2OC(COP(=O)(O)OP(=O)(O)OCC3OC(n4cnc5c(NCCNC(=S)Nc6ccc(-c7c8ccc(=O)cc-8oc8cc(O)ccc78)c(C(=O)O)c6)ncnc54)C(O)C3O)C(O)C2O)C=CC1 (centres unmarked) [FITC-NADH, fluorescein isothiocyano-N^6-(2-aminoethyl)-NADH] the Kd [1] was 1400 ± 100 nM and the “time stable in fluorescence polarization assay” value [2] was 100 min.
